Data taken from US20050136118A1, “Distribution and preparation of germicidal compositions” (priority 2003, published 2005).
Where “and” joins values, the source holds several entries; their conditions need not be identical. Equal values may be shown once. Read-outs that look alike come from different tables or passages of the source.

Tests used:
[1] = system: Bacillus subtilis spores; test: spore suspension test, killing of Bacillus subtilis spores; type: cell-based; conditions: for Log Reduction/mL (3 hr, 20° C., pH = 8): 3 hr exposure; for Log Reduction/mL, 8 hr: 8 hr exposure; for Log Reduction/mL, 24 hr: 24 hr exposure; for Log Reduction/mL, 4 hr: 4 hr exposure
[2] = system: Bacillus subtilis spores; conditions: cited from earlier work
[3] = system: spores; conditions: 0.3% (w/v) NaHCO3 added; cited from earlier work
[4] = system: Clostridium sporogenes spores; conditions: cited from earlier work
[5] = system: Mycobacterium bovis BCG; conditions: at least 0.25% by weight phthalaldehyde as sole active ingredient, 20° C.; cited from earlier work
[6] = storage stability of phthalaldehyde solution (loss by Cannizzaro reaction); type: physicochemical; conditions: about 11 weeks
Text: Overall, the Cannizzaro reaction generally leads to loss of phthalaldehyde and a decrease in the germicidal efficacy of the solution. While a pH of from 6 to 10, or 7.5 to 9 generally enhances the efficacy of the phthalaldehyde-carbonate solution, the higher or alkaline pH also generally promotes the Cannizzaro reaction. […] However, about 14% of the phthalaldehyde may be lost if the same solution is stored for about 11 weeks at a pH of 9, at room temperature. Even more of the phthalaldehyde may be converted if the storage period is longer, if the temperature is higher, or if the pH is higher than 9.

[7] = cited from earlier work
[8] = pH range of 3 to 9; cited from earlier work
[9] = system: Bacillus subtilis spores; conditions: cited from earlier work; remark: listed apart in the source
[10] = 0.25% phthalaldehyde as sole active ingredient, 20° C.
[11] = 20° C., composition and pH per label

## O=CCCCC=O [2.4% Glutaraldehyde, glutaraldehyde]
[1]
  Log Reduction/mL (3 hr, 20° C., pH = 8): <1.1 log/mL
[2]; salt ranging from 0 to 1M
  effect of salt concentration on sporicidal activity: increasing with an increase in concentration of sodium bicarbonate or sodium chloride

## OCl [sodium hypochlorite]
[2]; salt ranging from 0 to 1M
  effect of salt concentration on sporicidal activity: not affected

## [I-].[K+] [1000 mM KI, potassium iodide]
[1]
  Log Reduction/mL (3 hr, 20° C., pH = 8): 0.0 log/mL

## OO [hydrogen peroxide]
[2]; salt ranging from 0 to 1M
  effect of salt concentration on sporicidal activity: not affected

## CCCC=O [butyraldehyde]
[3]
  effect of addition of NaHCO3 on sporicidal action: did not affect

## O=Cc1ccccc1C=O [0.3% OPA, phthalaldehyde]
[4]; [10]
  time for sporicidal activity: 24 h
[4]; 1.0% phthalaldehyde
  time to achieve sterilization: 10 h
[5]
  time to kill all Mycobacterium bovis BCG in contact (high-level disinfection): ≤ 10 min
[6]; pH 7 or lower, room temperature to about 40° C.
  loss of phthalaldehyde on storage: without a noticeable loss
[6]; pH 9, room temperature
  phthalaldehyde lost on storage: about 14%
[7]
  solubility in water: about 5 % by weight
[1]; 20° C., 2 hr exposure, composition and pH per label
  Log Reduction/mL, 2 hr: 0.4 log/mL
[1]; 20° C., 6 hr exposure
  Log Reduction/mL, 6 hr: 0.7 log/mL
[1]; 20° C.
  Log Reduction/mL, 8 hr: ~0.6 log/mL
[1]
  Log Reduction/mL (3 hr, 20° C., pH = 8): 0.10 log/mL
[1]; 4 hrs, labelled solution additionally contains 63 mM NaHCO3
  Log Reduction/mL (20° C., 4 hrs), [NaHCO3], 63 mM: 1.5 log/mL and 1.4 log/mL
[1]; 4 hrs, labelled solution additionally contains 63 mM phosphate
  Log Reduction/mL (20° C., 4 hrs), [Phosphate], 63 mM: 0.7 log/mL
[1]; 4 hrs, labelled solution additionally contains 400 mM NaF
  Log Reduction/mL (20° C., 4 hrs), [NaF], 400 mM: 4.7 log/mL
[1]; 4 hrs, no NaF added to the labelled solution
  Log Reduction/mL (20° C., 4 hrs), [NaF], 0 mM: 0.4 log/mL
[1]; 4 hrs, no NaHCO3
  Log Reduction/mL (20° C., 4 hrs), [NaHCO3], 0 mM: 0.5 log/mL
[1]; 4 hrs, no phosphate
  Log Reduction/mL (20° C., 4 hrs), [Phosphate], 0 mM: 0.4 log/mL
[8]
  storage stability of single-component compositions: excellent stability
[9]; [10]
  time for sporicidal activity: 24 h
[9]; 1.0% phthalaldehyde
  time to achieve sterilization: 10 h

## [Cl-].[Na+] [1000 mM NaCl, sodium chloride]
[1]; 20° C.
  Log Reduction/mL, 24 hr: 0.2 log/mL

## [F-].[Na+] [1000 mM NaF, sodium fluoride]
[1]; 20° C.
  Log Reduction/mL, 8 hr: 0.0 log/mL

## CC(=O)OO [peracetic acid]
[2]; salt ranging from 0 to 1M
  effect of salt concentration on sporicidal activity: not affected

## O=CC=O [glyoxal]
[3]
  effect of addition of NaHCO3 on sporicidal action: did not affect

## [I-].[Na+] [1000 mM NaI, sodium iodide]
[1]; [11]
  Log Reduction/mL, 4 hr: 0.0 log/mL
[1]; 20° C.
  Log Reduction/mL, 8 hr: 0.0 log/mL
  Log Reduction/mL, 24 hr: 0.1 log/mL

## [Br-].[Na+] [1000 mM NaBr, sodium bromide]
[1]; [11]
  Log Reduction/mL, 4 hr: 0.0 log/mL
[1]; 20° C.
  Log Reduction/mL, 24 hr: 0.1 log/mL

## [F-].[K+] [1000 mM KF, potassium fluoride]
[1]; 20° C.
  Log Reduction/mL, 8 hr: 0.0 log/mL
  Log Reduction/mL, 24 hr: 0.1 log/mL
[1]
  Log Reduction/mL (3 hr, 20° C., pH = 8): 0.0 log/mL

## Oc1ccccc1 [phenol]
[2]
  effect of salt concentration on sporicidal activity: not affected

## [F-].[Li+] [100 mM LiF, lithium fluoride]
[1]; 20° C.
  Log Reduction/mL, 24 hr: 0.0 log/mL

## cupric ascorbate
[2]; salt ranging from 0 to 1M
  effect of salt concentration on sporicidal activity: not affected
